In patent publication US12011444B2, “N-substituted indole derivatives as PGE2 receptor modulators” (Idorsia Pharmaceuticals Ltd, priority 2015, dated 2024) one finds IC50 data, which are given here for 45 compounds.

One test deals with EP2 (Homo sapiens (Human), UniProt P43116).
The target in another test is EP4 (Homo sapiens (Human), UniProt P35408). Kind of test: hEP4 cAMP assay (BT549 breast cancer cells, HTRF cAMP). In kind it is cell-based. Conditions: antagonistic activity; mean values where measured multiple times. The protocol: Plate is pre-incubated 45 minutes at room temperature. Subsequently, 2.5 microliters of PGE2 (final conc. 6 nM) are transferred into the assay plate. Plate is incubated 30 minutes at room temperature.

Structures are written as SMILES.

EP2, sequence (P43116 whole entry): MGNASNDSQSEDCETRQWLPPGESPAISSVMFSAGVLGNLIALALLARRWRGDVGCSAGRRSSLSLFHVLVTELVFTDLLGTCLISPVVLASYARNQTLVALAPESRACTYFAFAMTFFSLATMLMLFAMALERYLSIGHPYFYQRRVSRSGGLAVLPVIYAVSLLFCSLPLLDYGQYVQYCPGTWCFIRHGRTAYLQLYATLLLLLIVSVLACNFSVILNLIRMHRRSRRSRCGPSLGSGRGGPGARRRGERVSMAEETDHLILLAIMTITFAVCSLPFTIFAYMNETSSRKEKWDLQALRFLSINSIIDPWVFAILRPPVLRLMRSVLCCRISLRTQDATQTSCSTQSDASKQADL
EP4, sequence (P35408 whole entry): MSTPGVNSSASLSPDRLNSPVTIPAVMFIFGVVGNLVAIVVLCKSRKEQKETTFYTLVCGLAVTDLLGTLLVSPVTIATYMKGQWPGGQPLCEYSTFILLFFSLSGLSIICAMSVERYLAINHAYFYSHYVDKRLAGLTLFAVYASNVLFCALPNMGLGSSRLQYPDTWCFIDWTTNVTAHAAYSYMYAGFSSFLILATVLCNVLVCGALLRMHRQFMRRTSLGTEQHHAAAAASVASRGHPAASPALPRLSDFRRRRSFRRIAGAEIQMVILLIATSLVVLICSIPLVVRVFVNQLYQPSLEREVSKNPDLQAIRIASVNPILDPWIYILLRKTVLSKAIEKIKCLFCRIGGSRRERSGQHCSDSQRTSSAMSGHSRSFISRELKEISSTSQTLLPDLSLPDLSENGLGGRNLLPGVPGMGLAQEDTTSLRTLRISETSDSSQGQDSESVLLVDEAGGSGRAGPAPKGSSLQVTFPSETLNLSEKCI

For `CCCOc1cc(-c2cc(NCCn3c(C)cc4c(C)cc(F)c(F)c43)ncn2)cc(Cl)c1C(=O)O` [compound 628], the figures for the half-inhibitory concentration (IC50) on EP2 and on EP4 were 89 nM and 254 nM, respectively.

Take `CCCOc1cc(-c2cc(NCCn3c(C)cc4c(C)c(F)cc(F)c43)ncn2)cc(Cl)c1C(=O)O` [compound 629]: the IC50 on EP2 is 26 nM; against EP4 it was 98 nM.

For the compound `COc1cc(F)cc2c1cc(C)n2CCNc1cc(-c2ccc(C(=O)O)c(OC(F)F)c2)ncn1` [compound 630], the concentration for half-maximal inhibition (IC50) at EP2 is 6 nM; on EP4 it was 142 nM.

As for `COc1ccc(Cl)c2c1cc(C)n2CCNc1cc(-c2ccc(C(=O)O)c(OC(F)F)c2)ncn1` [compound 631], the IC50 on EP2 came to 14 nM; at EP4 it was 320 nM.

For the compound `CCCc1cc(-c2cc(NCCn3c(C)cc4c(OC)ccc(Cl)c43)ncn2)cc(OCC)c1C(=O)O` [compound 633], the IC50 is 60 nM at EP2 and 750 nM on EP4.

Take `CCCc1cc(-c2cc(NCCn3c(C)cc4c(OC)ccc(F)c43)ncn2)cc(OCC)c1C(=O)O` [compound 634]: the IC50 against EP2 amounted to 27 nM; against EP4 it was 196 nM.

Regarding `CCOc1cc(-c2cc(NCCn3c(C)cc4c(OC)cc(F)cc43)nc(C(F)(F)F)n2)sc1C(=O)O` [compound 635], the IC50 against EP2 was found to be 50 nM; against EP4, 186 nM.

With `COc1cc(F)c(F)c2c1cc(C)n2CCNc1cc(-c2ccc(C(=O)O)c(OC(F)(F)F)c2)ncn1` [compound 636], the figures for the IC50 against EP2 and on EP4 were 68 nM and 255 nM, respectively.

As for `CCCOc1cc(-c2cc(NCCn3c(C)cc4c(OC)cc(F)c(F)c43)ncn2)cc(F)c1C(=O)O` [compound 637], the IC50 was 25 nM against EP2 and 54 nM at EP4.

Turning to `CCCOc1cc(-c2cc(NCCn3c(C)cc4c(OC)cc(F)c(F)c43)ncn2)cc(Cl)c1C(=O)O` [compound 638], the IC50 worked out at 61 nM against EP2 and 33 nM against EP4.

For `COc1cc(F)c(F)c2c1cc(C)n2CCNc1cc(-c2ccc(-c3cnc(N)o3)cc2)ncn1` [compound 639], the IC50 against EP2 stood at 23 nM; against EP4, 37 nM.

With `COc1cc(F)cc2c1cc(C)n2CCNc1cc(-c2ccc3[nH]c(C(F)(F)F)nc3c2)ncn1` [compound 640], the IC50 is 483 nM on EP2 and 430 nM against EP4.

Consider `COc1cc(F)c(F)c2c1cc(C)n2CCNc1cc(-c2ccc(-c3cncn3C)cc2)ncn1` [compound 641], for which the IC50 came to 114 nM against EP2 and 153 nM against EP4.

For `Cc1ccc(F)c2c1cc(C)n2CCNc1cc(-c2ccc(-c3cnc(CCC(=O)O)o3)cc2)ncn1` [compound 643], the IC50 came out at 294 nM on EP2 and 706 nM on EP4.

Regarding `COc1cc(F)c(F)c2c1cc(C)n2CCNc1cc(-c2ccc(C(=O)O)c(NCC(F)(F)F)c2)ncn1` [compound 644, 4-{6-[2-(6,7-Difluoro-4-methoxy-2-methyl-indol-1-yl)-ethylamino]-pyrimidin-4-yl}-2-(2,2,2-trifluoro-ethylamino)-benzoic acid], the IC50 against EP2 stood at 6 nM; at EP4 it was 54 nM.

Consider `CNc1nnc(-c2ccc(-c3cc(NCCn4c(C)cc5c(OC)cc(F)cc54)ncn3)cc2)s1` [compound 645], for which the half-maximal inhibitory concentration (IC50) turned out to be 9 nM against EP2 and 16 nM against EP4.

For the compound `COc1ccc(F)c2c1cc(C)n2CCNc1cc(-c2ccc(-c3cnc(CCC(=O)O)o3)cc2)ncn1` [compound 646], the IC50 against EP2 worked out at 48 nM; at EP4, 312 nM.

Turning to `Cc1nc(CCC(=O)O)oc1-c1ccc(-c2cc(NCCn3c(C)cc4c(C)cc(F)cc43)ncn2)cc1` [compound 647], the values for the IC50 against EP2 and on EP4 were 146 nM and 302 nM, respectively.

For the compound `Cc1nc(CCC(=O)O)oc1-c1ccc(-c2cc(NCCn3c(C)cc4c(C)ccc(F)c43)ncn2)cc1` [compound 648], the figures for the IC50 against EP2 and on EP4 were 195 nM and 893 nM, respectively.

As to `COc1cccc2c1cc(C)n2CCNc1cc(-c2ccc(C(=O)O)c(Oc3ccc(F)cc3)c2)ncn1` [compound 649], the IC50 at EP2 was 13 nM; against EP4 it was 768 nM.

On to `Cc1ccc(F)c2c1cc(C)n2CCNc1cc(-c2ccc(C(=O)O)c(Oc3ccc(F)cc3)c2)ncn1` [compound 650], for which the values for the IC50 on EP2 and against EP4 were 93 nM and 443 nM, respectively.

For the compound `COc1cc(F)cc2c1cc(C)n2CCNc1cc(-c2ccc(-c3oc(CCC(=O)O)nc3C)cc2)ncn1` [compound 651], the IC50 against EP2 worked out at 166 nM; on EP4, 257 nM.

With `COc1ccc(F)c2c1cc(C)n2CCNc1cc(-c2ccc(-c3oc(CCC(=O)O)nc3C)cc2)ncn1` [compound 652], the results for the IC50 on EP2 and against EP4 were 60 nM and 136 nM, respectively.

Take `Cc1nc(CCC(=O)O)oc1-c1ccc(-c2cc(NCCn3c(C)cc4c(C)cc(F)c(F)c43)ncn2)cc1` [compound 653]: the IC50 worked out at 428 nM on EP2 and 527 nM against EP4.

With `COc1ccc(F)c2c1cc(C)n2CCNc1cc(-c2ccc(C(=O)O)c(Oc3ccc(F)cc3)c2)ncn1` [compound 654], the IC50 stood at 26 nM against EP2 and 313 nM against EP4.

`COc1cc(F)c(F)c2c1cc(C)n2CCNc1cc(-c2ccc(-c3oc(CCC(=O)O)nc3C)cc2)ncn1` [compound 655]: the values for the IC50 at EP2 and against EP4 were 152 nM and 191 nM, respectively.

As to `CCOc1cc(-c2cc(NCCn3c(C)cc4c(OC)cc(F)c(F)c43)ncn2)cc(F)c1-c1nnn[nH]1` [compound 656], the IC50 against EP2 came out at 52 nM; on EP4, 89 nM.

As to `CCOc1cc(-c2cc(NCCn3c(C)cc4c(C)cc(F)c(F)c43)ncn2)cc(F)c1-c1nnn[nH]1` [compound 657], the figures for the IC50 on EP2 and against EP4 were 71 nM and 189 nM, respectively.

`CCOc1cc(-c2cc(NCCn3c(C)cc4c(OC)cc(F)cc43)ncn2)cc(F)c1-c1nnn[nH]1` [compound 658]: the values for the IC50 against EP2 and against EP4 were 24 nM and 287 nM, respectively.

Consider `CCNc1cc(-c2cc(NCCn3c(C)cc4c5c(cc(Cl)c43)OCO5)ncn2)ccc1-c1nnn[nH]1` [compound 659, [2-(5-Chloro-7-methyl-[1,3]dioxolo[4,5-e]indol-6-yl)-ethyl]-{6-[3-ethylamino-4-(1H-tetrazol-5-yl)-phenyl]-pyrimidin-4-yl}-amine], for which the IC50 against EP2 was 6 nM; at EP4, 54 nM.

In the case of `CCOc1cc(-c2cc(NCCn3c(C)cc4c(C)cc(F)cc43)ncn2)cc(F)c1-c1nnn[nH]1` [compound 660], the IC50 against EP2 worked out at 16 nM; against EP4, 303 nM.

Take `CCOc1cc(-c2cc(NCCn3c(C)cc4c(OC)ccc(F)c43)ncn2)ccc1-c1nnn[nH]1` [compound 661]: the figures for the IC50 at EP2 and on EP4 were 4 nM and 39 nM, respectively.

Consider `CCOc1cc(-c2cc(NCCn3c(C)cc4c(OC)ccc(Cl)c43)ncn2)ccc1-c1nnn[nH]1` [compound 662], for which the IC50 was determined as 8 nM against EP2 and 136 nM against EP4.

As to `CCOc1cc(-c2cc(NCCn3c(C)cc4c(OC)cccc43)ncn2)ccc1-c1nnn[nH]1` [compound 664], the IC50 was determined as 4 nM against EP2 and 95 nM against EP4.

With `CCNc1cc(-c2cc(NCCn3c(C)cc4c(OC)ccc(F)c43)ncn2)ccc1-c1nnn[nH]1` [compound 665, {6-[3-Ethylamino-4-(1H-tetrazol-5-yl)-phenyl]-pyrimidin-4-yl}-[2-(7-fluoro-4-methoxy-2-methyl-indol-1-yl)-ethyl]-amine], the IC50 against EP2 was determined as 2 nM; against EP4, 13 nM.

For the compound `CCNc1cc(-c2cc(NCCn3c(C)cc4c(OC)ccc(Cl)c43)ncn2)ccc1-c1nnn[nH]1` [compound 666, [2-(7-Chloro-4-methoxy-2-methyl-indol-1-yl)-ethyl]-{6-[3-ethylamino-4-(1H-tetrazol-5-yl)-phenyl]-pyrimidin-4-yl}-amine], the IC50 was determined as 7 nM on EP2 and 40 nM against EP4.

With `CCNc1cc(-c2cc(NCCn3c(C)cc4c(OC)cccc43)ncn2)ccc1-c1nnn[nH]1` [compound 667, {6-[3-Ethylamino-4-(1H-tetrazol-5-yl)-phenyl]-pyrimidin-4-yl}-[2-(4-methoxy-2-methyl-indol-1-yl)-ethyl]-amine], the figures for the IC50 on EP2 and against EP4 were 2 nM and 17 nM, respectively.

As to `CCNc1cc(-c2cc(NCCn3c(C)cc4c(C)ccc(F)c43)ncn2)ccc1-c1nnn[nH]1` [compound 668, {6-[3-Ethylamino-4-(1H-tetrazol-5-yl)-phenyl]-pyrimidin-4-yl}-[2-(7-fluoro-2,4-dimethyl-indol-1-yl)-ethyl]-amine], the IC50 stood at 8 nM at EP2 and 22 nM against EP4.

For `CCOc1cc(-c2cc(NCCn3c(C)cc4ccccc43)ncn2)ccc1-c1nnn[nH]1` [compound 669], the IC50 came out at 2 nM on EP2 and 644 nM against EP4.

Take `COc1cc(-c2cc(NCCn3c(C)cc4c(OC)cccc43)ncn2)ccc1-c1nnn[nH]1` [compound 670, [2-(4-Methoxy-2-methyl-indol-1-yl)-ethyl]-{6-[3-methoxy-4-(1H-tetrazol-5-yl)-phenyl]-pyrimidin-4-yl}-amine]: the values for the IC50 at EP2 and at EP4 were 8 nM and 406 nM, respectively.

As for `CCNc1cc(-c2cc(NCCn3c(C)cc4ccccc43)ncn2)ccc1-c1nnn[nH]1` [compound 671, {6-[3-Ethylamino-4-(1H-tetrazol-5-yl)-phenyl]-pyrimidin-4-yl}-[2-(2-methyl-indol-1-yl)-ethyl]-amine], the IC50 came out at 2 nM against EP2 and 136 nM against EP4.

Consider `CCCCOc1cc(-c2cc(NCCn3c(C)cc4c(OC)cc(F)cc43)ncn2)sc1C(=O)O` [compound 672], for which the IC50 on EP2 was 1 nM; against EP4 it was 3 nM.

For `CCCCOc1cc(-c2cc(NCCn3c(C)cc4c(OC)ccc(F)c43)ncn2)sc1C(=O)O` [compound 673], the 50% inhibitory concentration (IC50) on EP2 came out at 2 nM; on EP4, 3 nM.

For the compound `CCCOc1cc(-c2cc(NCCn3c(C)cc4c(OC)cc(F)cc43)ncn2)sc1C(=O)O` [compound 674], the IC50 against EP2 turned out to be 2 nM; at EP4, 6 nM.

For `COc1ccc(F)c2c1cc(C)n2CCNc1cc(-c2cc(OC(C)C)c(C(=O)O)s2)ncn1` [compound 675], the results for the IC50 on EP2 and against EP4 were 4 nM and 7 nM, respectively.
